US5837548A, “Treatment of inflammation by inhibition of lipid body formation” (Beth Israel Hospital, priority 1995, dated 1998)
Read-outs that look alike come from different tables or passages of the source. *1 amine or outer side, *2 acyl side, *3 side chain or, on linkers, in order; H or OH if unused. Where a SMILES comes first, the peptide text is derived from it. Bridges are numbered along the chain shown (N, C = ends). Roman numbers before positions name the chains, in order. [ ]: non-standard residue; d: D form. Actinocin(9to1) = Cc1c2oc3c(C)ccc(C(=O)[*:1])c3nc-2c(C(=O)[*:2])c(N)c1=O; NMeV = CN[CH](C(=O)O)C(C)C; Sar = CNCC(=O)O

What was measured:
[1] = test system: human neutrophils; details: cited from earlier work
[2] = test system: human eosinophils; details: receptor-mediated; cited from earlier work
[3] = test system: human leukocytes; experiment: cytotoxicity / cell viability by trypan blue dye exclusion; type: cell-based; details: neutrophils
Method: (§1) Human leukocytes (10^6 cells/mL) were incubated with varying concentrations of arachidonic acid (AA), oleic acid (OA) or vehicle at 37° C. in a 5% CO2 /95% O2 atmosphere, and after 1 hour leukocytes (10^5 cells per slide) were cytocentrifuged (550 rpm, 5 min) onto glass slides. During inhibitory studies, neutrophils were pretreated for 1 hour with varying concentrations of enzyme inhibitors, protein synthesis inhibitors, or vehicle as indicated. When PKC inhibitors were used, the pre-incubation time was reduced to 30 minutes to avoid toxic effects to the cells. The cell viability, determined by trypan blue dye exclusion at the end of each experiment, was always greater than 90%. Stock solutions for A23187, D609, U-73122, and indomethacin were prepared in DMSO and stored at -20° C. Aliquots were diluted in Ca^++ /Mg^++ fee HBSS to the indicated concentration immediately prior to use. The final DMSO concentration was always lower than 0.1% and had no effect on lipid body numbers. […] The morphology of fixed cells was observed, and lipid bodies were enumerated with phase contrast microscopy and a 100× objective lens in 50 consecutively scanned leukocytes.

[4] = test system: human neutrophils; experiment: cis-unsaturated fatty acid-induced lipid body formation in human neutrophils (osmium staining, light microscopy enumeration); type: cell-based; details: for inhibition at 1 µM / inhibition at 10 µM: Homo sapiens, Neutrophil, basal subtracted; for inhibition of arachidonic acid-induced lipid body formation / inhibition of oleic acid-induced lipid body formation: human neutrophils, staurosporine 0.1-1.0 μM, aspirin 10 μg/mL, others as in Tables 1 and 2; for effect on numbers of preformed lipid bodies: neutrophils
Method: Neutrophils were purified from fresh human blood obtained by venipuncture from healthy adult volunteers and collected into acidified citrate. After addition of 6% dextran 70 (McGaw, Irvine, Calif.), RBCs were allowed to sediment for 1 hour at room temperature. The leukocyte-rich supernatant was overlaid onto an equal volume of Ficoll-Paque gradient (Piscataway, N.J.), and centrifuged at 400×g for 20 min. […] Residual RBCs were lysed with hypotonic saline.
as §1, with “The cell viability, determined by trypan blue dye exclusion at the end of each experiment, was always greater than 90%.” left out, “use.” for “use. The final DMSO concentration was always lower than 0.1% and had no effect on lipid body numbers.”
Results were expressed as mean±SEM and were analyzed statistically by means of the analysis of variance followed by the Newman-Keuls-Student test with the level of significance set at p<0.05. Correlation coefficients were determined by linear regression, and correlation analysis was performed by Fisher's r to z transformation with the level of significance set at p<0.05.
^1 Neutrophils (10^6 /ml) were pretreated with protein kinase C
(actinomycin D, cycloheximide) for 30 min or with phospholipase C
inhibitors (D609, U73122) for 1 h. The cells were then stimulated with
vehicle, arachidonic acid (15 μM), or oleic acid (10 μM), for 1 h.
Results are mean ± SEM from fifty consecutively counted neutrophils.
Statistically significant differences between the agonist alone and the
inhibitor are represented by an asterisk(*). Percent inhibition has been
calculated after subtracting out the basal number of lipid bodies/PMN
present prior to stimulation.
^1 Neutrophils (10^6 /ml) were pretreated with the NSAID or
vehicle for 1 h then stimulated with vehicle, arachidonic acid, or oleic
± SEM from fifty consecutively counted neutrophils. Statistically
significant differences between the agonist alone and the NSAID are
represented by an asterisk (*). Percent inhibition has been calculated
after subtracting out the basal number of lipid bodies/PMN present prior

[5] = arachidonic acid 15 μM, inhibitor 1 μM
[6] = arachidonic acid 15 μM, inhibitor 10 μM
[7] = oleic acid 10 μM, inhibitor 1 μM
[8] = oleic acid 10 μM, inhibitor 10 μM

| SMILES | induction of lipid body formation [1] | induction of lipid body formation [2] | cytotoxicity [3] | lipid bodies (mean ± SEM)/cell [4, 5] | lipid bodies (mean ± SEM)/cell [4, 6] | inhibition of arachidonic acid-induced lipid body formation [4] | inhibition of oleic acid-induced lipid body formation [4] | effect on numbers of preformed lipid bodies [4] | lipid bodies (mean ± SEM)/cell [4, 7] | lipid bodies (mean ± SEM)/cell [4, 8] | other results |
| --- | --- | --- | --- | --- | --- | --- | --- | --- | --- | --- | --- |
| CCCCC/C=C\C[C@H](O)/C=C/C=C\C/C=C\CCCC(=O)O [12-HETE] | elicit lipid body formation | elicit lipid body formation |  |  |  |  |  |  |  |  |  |
| CCCCC[C@H](O)/C=C/C=C\C/C=C\C/C=C\CCCC(=O)O [15-HETE] | elicit lipid body formation | elicit lipid body formation |  |  |  |  |  |  |  |  |  |
| Cc1c2oc3c(C)ccc(C(=O)NC4C(=O)NC(C(C)C)C(=O)N5CCCC5C(=O)N(C)CC(=O)N(C)C(C(C)C)C(=O)OC4C)c3nc-2c(C(=O)NC2C(=O)NC(C(C)C)C(=O)N3CCCC3C(=O)N(C)CC(=O)N(C)C(C(C)C)C(=O)OC2C)c(N)c1=O (stereo not shown) [actinomycin D] (I: TVP[Sar][NMeV] / II: TVP[Sar][NMeV]; ester I:1-I:C, II:1-II:C; linker I:N-II:N via Actinocin(9to1); configuration not given here) |  |  | not cytotoxic | 8.4 ± 0.3 lipid bodies/cell | 7.6 ± 0.3 lipid bodies/cell | significantly inhibited | significantly inhibited | did not alter numbers of preformed lipid bodies | 8.8 ± 0.3 lipid bodies/cell | 8.1 ± 0.3 lipid bodies/cell | inhibition at 1 µM ([4]; arachidonic acid 15 μM, inhibitor 1 μM, read-out: % inhibition): 47%; inhibition at 10 µM ([4]; arachidonic acid 15 μM, inhibitor 10 μM, read-out: % inhibition): 64%; inhibition at 1 µM ([4]; oleic acid 10 μM, inhibitor 1 μM, read-out: % inhibition): 26%; inhibition at 10 µM ([4]; oleic acid 10 μM, inhibitor 10 μM, read-out: % inhibition): 42% |
| C[C@@H]1C[C@@H]([C@H](O)CC2CC(=O)NC(=O)C2)C(=O)[C@@H](C)C1 [cycloheximide] |  |  | not cytotoxic | 9.8 ± 0.3 lipid bodies/cell | 9.2 ± 0.3 lipid bodies/cell | significantly inhibited | significantly inhibited | did not alter numbers of preformed lipid bodies | 9.0 ± 0.3 lipid bodies/cell | 8.3 ± 0.3 lipid bodies/cell | inhibition at 1 µM [4, 5]: 17%; inhibition at 10 µM [4, 6]: 30%; inhibition at 1 µM [4, 7]: 22%; inhibition at 10 µM [4, 8]: 38% |
| CCCCCCCCCCCCCCCCOCC(COP(=O)([O-])OCC[N+](C)(C)C)OC(C)=O (stereo not shown) [platelet activating factor] | Lipid body formation is also induced | elicit lipid body formation |  |  |  |  |  |  |  |  | induction of lipid body formation ([1]; listed as PAF): elicit lipid body formation |
